Series [1] is described as follows: 50% anesthetic dose in rats (i.v.). The series is classed as in vivo, rat. As to conditions: for selectivity ratio: in vivo, read-out: LD50/AD50; for selectivity ratio / ED50: iv, rat, i.v.; for ED50: read-out: AD50 (50% anesthetic dose). From the text: (§1) The compounds included in this invention are useful as general anesthetics.
Series [2] can be described thus: 50% lethal dose in rats (i.v.). As to conditions: in vivo, iv, rat.
Excerpt: as §1

Series [3] concerns withdrawal reflex against nociceptive stimuli. Put plainly: withdrawal reflex against nociceptive stimuli (pinching of hind leg toes, small incision of abdomen) in rabbits. As to conditions: for anti-nociceptive activity: same doses for KA-100 and thiopental-Na. The series is classed as in vivo, rabbit. The protocol: (§2) Thiopental-Na caused an anesthesia lasted for 13 min. after injection of 20 mg/kg and 30 min. after 30 mg/kg.

The nature of series [4]: anesthesia, sleeping time and post-anesthetic recovery in rabbits (i.v.). The series is classed as in vivo, rabbit. As to the method: In rabbits, KA-100 caused an anesthesia at the doses of more than 10 mg/kg (i.v.), and the sleeping times at 20 and 30 mg/kg were 20 min. and more than 20 min. respectively.
as §2

Series [5] can be described thus: disturbance of blood vessels. As to conditions: maleate.
Series [6] can be described thus: 50% lethal dose in mice (i.v.). As to conditions: in vivo, iv, mouse.
Excerpt: as §1

A further series relates to extension of hind legs. Description: reflex against extension of hind legs / muscular relaxation in rabbits. The series is classed as in vivo, rabbit. As to conditions: for muscular relaxant activity / muscular rigidity: same doses for KA-100 and thiopental-Na. The protocol: as §2
A short description of a further series: solubility in water. The series is classed as physicochemical. As to conditions: maleate, nearly physiological pH (pH 6).
Series [7] is described as follows: 50% anesthetic dose in mice (i.v.). The series is classed as in vivo, mouse. As to conditions: for selectivity ratio: in vivo, read-out: LD50/AD50; for selectivity ratio / ED50: iv, mouse, i.v.; for ED50: read-out: AD50 (50% anesthetic dose).
Excerpt: as §1

Each structure is given as a SMILES string.

As a reminder, the LD50 is the dose at which mortality reaches 50%. Low readings indicate greater toxicity, high ones lower toxicity. `CCOC=CC(=O)N1C[C@H](C)N(CCCc2ccccc2)C[C@H]1C.O=C(O)/C=C\C(=O)O` (relative stereo) [KA-100, trans-1-(3-phenylpropyl)-2,5-dimethyl-4-(β-ethoxyacryloyl)piperazine maleate]: the selectivity ratio came to 12.6 in series [1] and 4.9 in series [7]. The ED50 in series [1] came out at 4.8 mg/kg; in series [7] it was 7.6 mg/kg. The anesthetic effect result in series [1] (rats), in series [4] and in [7] (mice) was “good anesthetic effect” throughout. For the same molecule, the LD50 worked out at 60.2 mg/kg in series [2] and 37.3 mg/kg in series [6]. Moreover, the “withdrawal reflex against nociceptive stimuli” value in series [3] (more than 20 mg/kg) is on record as “lost the withdrawal reflex against nociceptive stimuli”. Besides, in series [3], the anti-nociceptive activity result is given as “anti-nociceptive”. For the same molecule, the “sleeping time / duration of anesthesia” value is 20 min in series [4] (20 mg/kg) and “more than 20 min” in [4] (30 mg/kg). In [4] (KA-100 and thiopental-Na compared), the pharmacological potency result is recorded as “practically equal”. Besides, the minimal effective dose in series [4] (Oryctolagus cuniculus, iv, read-out: doses that caused an anesthesia) is greater than 10 mg/kg. Besides, in series [4] (compared with thiopental-Na), the “recovery from ataxic state in post-anesthetic period” value is reported as “far more rapid”. Also, the “disturbance of blood vessels” value in series [5] is given as “does not disturb blood vessels”. For the same molecule, in the series on extension of hind legs (more than 20 mg/kg), the “reflex against extension of hind legs” value is “lost the withdrawal reflex against nociceptive stimuli (pinching of hind leg toes by a forceps or small incision of abdomen) and against extension of hind legs”. In the series on extension of hind legs, the “muscular relaxant activity / muscular rigidity” value was “muscular relaxant activity”. Also, in the series “solubility in water”, the solubility in water result was “soluble in water”.

Consider `CCCC(C)C1(CC)C(=O)NC(=S)NC1=O` (stereo not drawn) [Thiopental-Na, reference compound], for which the selectivity ratio in series [1] worked out at 7.5; in series [7] it was 4.3. Also, the values for the ED50 in series [1] and in series [7] were 10.7 mg/kg and 20.9 mg/kg, respectively. Further, the LD50 in series [2] came out at 80.3 mg/kg; in [6], 90.9 mg/kg. The anti-nociceptive activity entry in series [3] is “no anti-nociceptive effect”. In addition, the “sleeping time / duration of anesthesia” value in [4] (20 mg/kg) worked out at 13 min; in [4] (30 mg/kg) it was 30 min. In the series with extension of hind legs, the “muscular relaxant activity / muscular rigidity” value is listed as “induced muscular rigidity”.

(Values after US4041038A, “1-(3-Phenylpropyl)-4-(beta-alkoxyacryloyl)piperazine derivatives” (Kyorin Pharmaceutical Co., Ltd., priority 1975, dated 1977).)
